The text below walks through data of ChEMBL document CHEMBL5154741, “Antibacterial alkylguanidino ureas: Molecular simplification approach, searching for membrane-based MoA” (Eur J Med Chem, 2022).

Data set [1] concerns Cell membrane. In words: Disruption of membrane integrity in Pseudomonas aeruginosa ATCC 27853 assessed as increase in PI uptake at 16 ug/ml measured every 15 mins for 6 hrs by SYTO9/PI staining based fluorometric analysis. The settings on record: dose 16.0 µg/ml.
For data set [2], the system named is Cell membrane. In words: Disruption of membrane integrity in Escherichia coli MG1655 assessed as increase in PI positive cells at 16 ug/ml measured after 1 hr by SYTO9/PI staining based confocal laser scanning microscope analysis. It counts as subcellular. The settings on record: dose 16.0 µg/ml.
The nature of data set [3]: Apparent permeability of the compound across bacterial inner membrane mimic pure POPG in PBS buffer assessed as membrane retention at pH 7.4 incubated for 5 hrs by PAMPA based UV-Vis spectrophotometric analysis. It counts as ADME, cell membranes. The settings on record: pH 7.4, 5 h.
In another data set the test system is Klebsiella pneumoniae. In words: Antibacterial activity against pan drug-resistant Klebsiella pneumoniae S1-081Rb assessed as bacterial growth inhibition incubated for 18 hrs by CLSI based micro-dilution broth method. The format is functional.
Data set [4] relates to Cell membrane. In words: Disruption of membrane integrity in Staphylococcus aureus ATCC 25923 assessed as increase in PI uptake at 16 ug/ml measured every 15 mins for 6 hrs by SYTO9/PI staining based fluorometric analysis. The settings on record: dose 16.0 µg/ml. The format is subcellular.
Data set [5] is described as follows: Apparent permeability of the compound across bacterial inner membrane mimic pure POPG in PBS buffer at pH 7.4 incubated for 5 hrs by PAMPA based UV-Vis spectrophotometric analysis. It counts as ADME.
The test system of data set [6] is Cell membrane. The data set is described as follows: Disruption of membrane integrity in Staphylococcus aureus ATCC 25923 assessed as increase in PI uptake at 16 ug/ml measured after 1 hr by SYTO9/PI staining based fluorometric analysis. To be noted: dose 16.0 µg/ml.
The nature of data set [7]: Hemolytic activity against human RBC at 1 ug/ml incubated for 30 mins (reference value: 0%). It counts as toxicity, cell-based, Erythrocyte. To be noted: human red blood cells (erythrocytes), at 1 µg/mL, read-out: Activity.
The test system of another data set is Lipid bilayer. In words: Binding affinity to bacterial membrane mimic POPG large unilamellar vesicle assessed as bathochromic shift at 125 uM measured at t = 0 by UV-Vis spectrophotometric analysis.

Converted amounts (≈) assume the structure as drawn. The source made the active and inactive calls. The rule behind the calls is not given here.

Take `N=C(N)NCCCCCCCCN(CCCCCCCCNC(=N)NCC1CC1)C(=O)N(CCCCCCCCNC(=N)NCC1CC1)CCCCCCCCNC(=N)NCC1CC1.O=C(O)C(F)(F)F`: the outcome with Cell membrane [1], in the data set on Cell membrane [2], with Cell membrane [4], in the data set on Cell membrane [6] and in the data set on Lipid bilayer was Active. The R% in [3] was found to be 56%. In addition, the MBC with Klebsiella pneumoniae was 2 µg/mL. Besides, the MIC in the data set on Klebsiella pneumoniae worked out at 2 µg/mL. Besides, the Papp at 5 h in [5] is 0.26 ×10⁻⁶ cm/s. In addition, in data set [7], the hemolysis at 0.5 h, 1 ug/ml was determined as 0%.
Turning to `CCCCCCCCN(CCCCCCCCNC(=N)NCC1CC1)C(=O)N(CCCCCCNC(=N)NCC1CC1)CCCCCCNC(=N)NCC1CC1`, the outcome with Cell membrane [1], with Cell membrane [2], in the data set with Cell membrane [4], in the data set on Cell membrane [6] and in the data set on Lipid bilayer was Active. Further, the R% in [3] amounted to 63%. Further, in the data set on Klebsiella pneumoniae, the MBC is 8 µg/mL (≈ 10.2 µM). Also, in the data set on Klebsiella pneumoniae, the MIC stood at 8 µg/mL (≈ 10.2 µM). Moreover, in data set [5], the Papp at 5 h stood at 0.18 ×10⁻⁶ cm/s. Moreover, in [7], the hemolysis at 0.5 h, 1 ug/ml was determined as 0%.
Take `N=C(NCCCCCCCCNC(N)=O)NCC1CC1.O=C(O)C(F)(F)F`: the outcome in the data set with Cell membrane [1], in the data set on Cell membrane [2], in the data set on Cell membrane [4], in the data set on Cell membrane [6] and with Lipid bilayer was Active. The R% in data set [3] is given as 16%. Further, the MBC in the data set with Klebsiella pneumoniae was determined as 4 µg/mL. Further, in the data set on Klebsiella pneumoniae, the MIC was 4 µg/mL. Further, the Papp at 5 h in data set [5] was found to be 6.1 ×10⁻⁶ cm/s. Also, the hemolysis at 0.5 h, 1 ug/ml in [7] amounted to 0%.
